Legend:
KRAS^G12C = conditions: role: inhibitor, background statement, cited from earlier work
[1] = Stability testing: DSC, Tg, Example 2; type: physicochemical
Protocol: (§1) Stability testing of the three ASDs prepared in Example 1 was conducted over 2 months (T=0, 1 month and 2 months) using XRPD, TGA, DSC, PSD, and dissolution tests (FaSSIF and biorelevant media).
(§2) Stability Testing: ASD samples were stored in low density polyethylene (LPDE) bags placed in a heat-sealed aluminum foil pouch along with desiccant. Foil pouches were then placed into a stability chamber at 25 °C/60% RH and taken out for stability testing (XRPD, TGA, DSC PSD, dissolution and biorelevant dissolution) at specified timepoints.
Differential Scanning Calorimetry (DSC) Analysis: DSC data is collected using a TA Instruments Q2500 DSC. Approximately, 2-6 mg of the sample was placed in a Tzero aluminum pan and sealed with Tzero lid. Method Log consist of equilibrating to −20 °C, holding Isothermal for 1.00 min, Ramping 10.00 °C/min to 160.0 °C, holding isothermal for 1.00 min, bringing down to Ramp of 10.00 °C/min to −20.00 °C, holding isothermal for 1.00 min, ramping 10.00 °C/min to 200 °C, marking end of cycle. Conditions were done under a nitrogen purge of about 50 mL/min.

[2] = Stability testing: particle size distribution (PSD), Example 2; type: physicochemical
Protocol: as §1, §2
Particle Size Distribution (PSD): Analysis of each of the samples was obtained using a Sympatec Helos laser diffraction analyzer. The results are shown below (D10, D50, and D90 values).

[3] = Stability testing: Thermal Gravimetric analysis (TGA), Example 2; type: physicochemical
Protocol: as §1, §2
Thermal Gravimetric analysis (TGA): TGA was performed to evaluate presence for residual solvent and any thermal transitions which may result in weight loss. TGA was performed on a TA Instruments Discovery 550 Series analyzer at 5 °C/min from ambient temperature to 200 °C in a platinum pan under dry nitrogen at 25 ml/min. Sample size was ~2-8 mg.

[4] = Stability testing: XRPD, Example 2; type: physicochemical
Protocol: as §1, §2
X-Ray Powder Diffraction (XRPD) Analysis: XRPD data was obtained using a Panalytical PW3040-PRO diffractometer. Samples were scanned at room temperature (25 °C) in continuous mode from 3-45 degrees (2θ) with step size of 0.03 degrees at 45 kV and 40 mA with CuKα radiation (1.54 A). The incident beam path was equipped with a primary soller slit 0.04 rad and a divergence slit 0.38 mm, in a fixed slit mode. Samples were prepared on a low background sample holder and placed on a spinning stage with a rotation time of 4 sec.

[5] = Particle size distribution (laser diffraction), Example 1; type: physicochemical; conditions: Example 1, Table 1
From the text: Particle Size Distribution (PSD): Analysis of each of the samples was obtained using a Sympatec Helos laser diffraction analyzer. The results of the particle size analysis are shown in Table 1 (D10, D50, and D90 values).

[6] = Stability testing: dissolution (FaSSIF), Example 2; type: physicochemical; conditions: FaSSIF pH 6.50; all crystalline samples, first two timepoints of amorphous samples
Protocol: as §1, §2
Dissolution (FaSSIF): The dissolution properties of ASDs 1-3 and the control spray-dried sotorasib were assessed as described herein. 5 mg of amorphous sotorasib (control), 5 mg of crystalline sotorasib (control), and 20 mg of ASDs1-3 as listed in Table 1 were added to separate 20 mL vials of FaSSIF (pH 6.50) and samples were collected at 5, 15, 20, 30, 60, 120, 180 min timepoints. […] The mobile phases were A:Water with 0.1% trifluoroacetic acid and B:Acetonitile with 0.1% trifluoroacetic acid. The method was a reverse gradient of 5% B 95% A to 98% B 2% A over 15 minutes using a wavelength 254 nm for detection and quantification.

## C=CC(=O)N1CCN(c2nc(=O)n(-c3c(C)ccnc3C(C)C)c3nc(-c4c(O)cccc4F)c(F)cc23)[C@@H](C)C1 (atropisomer, axis not shown) [Sotorasib]
KRAS^G12C; (M)- v. (P)-configuration
  activity at the target protein, atropisomers: more active at the target protein than the (P)-configuration
KRAS^G12C
  inhibition of KRAS^G12C: specifically and irreversibly inhibits

## C=CC(=O)N1CCN(c2nc(=O)n(-c3c(C)ccnc3C(C)C)c3nc(-c4c(O)cccc4F)c(F)cc23)[C@@H](C)C1 [sotorasib amorphous]
[1]; T = 0, n1
  DSC result - Tg: n1: 147.7 °C
[1]; T = 0, n2
  DSC result - Tg: n2: 146.9 °C
[1]; T = 1 month, n1, 25 °C/60% RH
  DSC result - Tg: n1: 148.4 °C
[1]; T = 1 month, n2, 25 °C/60% RH
  DSC result - Tg: n2: 148.3 °C
[1]; T = 2 months, n1, 25 °C/60% RH
  DSC result - Tg: n1: 149.1 °C
[1]; T = 2 months, n2, 25 °C/60% RH
  DSC result - Tg: n2: 148.6 °C
[2]; T = 0
  PSD result - D10: 0.8 μm
  PSD result - D50: 3.6 μm
  PSD result - D90: 13.4 μm
[2]; T = 1 month, 25 °C/60% RH
  PSD result - D10: 0.8 μm
  PSD result - D50: 4.2 μm
  PSD result - D90: 14.4 μm
[2]; T = 2 months, 25 °C/60% RH
  PSD result - D10: 0.8 μm
  PSD result - D50: 3.8 μm
  PSD result - D90: 13.5 μm
[3]; T = 0
  TGA result (weight change): <1%
[3]; T = 1 month, 25 °C/60% RH
  TGA result (weight change): <1%
[3]; T = 2 months, 25 °C/60% RH
  TGA result (weight change): <1%
[4]; T = 0
  XRPD result: amorphous
[4]; T = 1 month, 25 °C/60% RH
  XRPD result: amorphous
[4]; T = 2 months, 25 °C/60% RH
  XRPD result: amorphous
[5]
  D10: <1.0 μm
  D50: <4.0 μm
  D90: <16 μm

## C=CC(=O)N1CCN(c2nc(=O)n(-c3c(C)ccnc3C(C)C)c3nc(-c4c(O)cccc4F)c(F)cc23)[C@@H](C)C1 [crystalline sotorasib]
[6]
  solubility (samples not diluted): low solubility

Reference: patent publication US20260345615A1, “COMPOSITIONS COMPRISING SOTORASIB” (AMGEN INC., priority 2023, published 2026)
